Reference: ChEMBL document CHEMBL3763148, “Synthesis, structure elucidation, DNA-PK and PI3K and anti-cancer activity of 8- and 6-aryl-substituted-1-3-benzoxazines” (Eur J Med Chem, 2016)

Experiments:
[1] = biological target: T1, Phosphatidylinositol 4,5-bisphosphate 3-kinase catalytic subunit delta isoform (Homo sapiens, UniProt O00329); test: Inhibition of PI3Kdelta (unknown origin) incubated for 60 mins by kinase-glo luminescence assay
T1 sequence (O00329 whole entry): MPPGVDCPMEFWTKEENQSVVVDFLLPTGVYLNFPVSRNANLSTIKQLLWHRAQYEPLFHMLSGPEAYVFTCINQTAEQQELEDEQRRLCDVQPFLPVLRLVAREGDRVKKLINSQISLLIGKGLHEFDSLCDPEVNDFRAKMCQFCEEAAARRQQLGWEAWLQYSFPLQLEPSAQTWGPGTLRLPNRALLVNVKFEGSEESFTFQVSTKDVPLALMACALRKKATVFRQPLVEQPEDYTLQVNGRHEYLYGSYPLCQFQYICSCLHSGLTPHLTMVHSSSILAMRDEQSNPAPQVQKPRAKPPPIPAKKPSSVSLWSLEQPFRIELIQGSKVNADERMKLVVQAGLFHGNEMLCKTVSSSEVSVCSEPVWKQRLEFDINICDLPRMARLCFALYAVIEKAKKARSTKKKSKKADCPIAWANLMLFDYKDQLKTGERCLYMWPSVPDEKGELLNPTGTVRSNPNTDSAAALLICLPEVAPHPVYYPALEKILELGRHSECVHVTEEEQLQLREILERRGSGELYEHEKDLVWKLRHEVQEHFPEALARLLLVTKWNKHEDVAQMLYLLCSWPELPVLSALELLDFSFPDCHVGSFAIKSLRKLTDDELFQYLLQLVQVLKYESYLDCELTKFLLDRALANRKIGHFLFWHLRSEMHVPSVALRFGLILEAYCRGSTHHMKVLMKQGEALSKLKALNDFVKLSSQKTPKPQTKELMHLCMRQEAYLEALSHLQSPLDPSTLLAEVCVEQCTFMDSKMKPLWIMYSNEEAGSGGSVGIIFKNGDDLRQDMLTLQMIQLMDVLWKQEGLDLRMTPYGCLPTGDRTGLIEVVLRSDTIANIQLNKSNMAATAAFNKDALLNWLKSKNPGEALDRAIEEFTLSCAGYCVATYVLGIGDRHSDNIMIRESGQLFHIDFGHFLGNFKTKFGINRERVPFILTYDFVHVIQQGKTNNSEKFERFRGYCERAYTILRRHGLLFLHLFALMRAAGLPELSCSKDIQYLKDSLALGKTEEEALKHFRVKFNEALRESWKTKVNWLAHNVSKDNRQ

CCRF-CEM = test: Cytotoxicity against human CCRF-CEM cells assessed as cell growth inhibition at 10 uM after 48 hrs by SRB assay relative to control; type: functional; conditions: read-out: GI
K562 = test: Cytotoxicity against human K562 cells assessed as cell growth inhibition at 10 uM after 48 hrs by SRB assay relative to control; type: functional; conditions: K562, 48 h, read-out: GI
SR = test: Cytotoxicity against human SR cells assessed as cell growth inhibition at 10 uM after 48 hrs by SRB assay relative to control; type: functional; conditions: read-out: GI
A549 = test: Cytotoxicity against human A549 cells assessed as cell growth inhibition at 10 uM after 48 hrs by SRB assay relative to control; type: functional; conditions: A549, 48 h, read-out: GI
NCI-H226 = test: Cytotoxicity against human NCI-H226 cells assessed as cell growth inhibition at 10 uM after 48 hrs by SRB assay relative to control; type: functional; conditions: NCI-H226, 48 h, read-out: GI
NCI-H460 = test: Cytotoxicity against human NCI-H460 cells assessed as cell growth inhibition at 10 uM after 48 hrs by SRB assay relative to control; type: functional; conditions: NCI-H460, 48 h, read-out: GI
[2] = Cytotoxicity against human HCT116 cells assessed as cell growth inhibition at 10 uM after 48 hrs by SRB assay relative to control; type: functional; conditions: HCT-116, 48 h, read-out: GI
[3] = Cytotoxicity against human HCT15 cells assessed as cell growth inhibition at 10 uM after 48 hrs by SRB assay relative to control; type: functional; conditions: HCT-15, 48 h, read-out: GI
KM12 = test: Cytotoxicity against human KM12 cells assessed as cell growth inhibition at 10 uM after 48 hrs by SRB assay relative to control; type: functional; conditions: KM12, 48 h, read-out: GI
[4] = Cytotoxicity against human SF268 cells assessed as cell growth inhibition at 10 uM after 48 hrs by SRB assay relative to control; type: functional; conditions: SF-268, 48 h, read-out: GI
M14 = test: Cytotoxicity against human M14 cells assessed as cell growth inhibition at 10 uM after 48 hrs by SRB assay relative to control; type: functional; conditions: M14, 48 h, read-out: GI
SK-MEL-5 = test: Cytotoxicity against human SK-MEL-5 cells assessed as cell growth inhibition at 10 uM after 48 hrs by SRB assay relative to control; type: functional; conditions: SK-MEL-5, 48 h, read-out: GI
[5] = Cytotoxicity against human UACC62 cells assessed as cell growth inhibition at 10 uM after 48 hrs by SRB assay relative to control; type: functional; conditions: UACC-62, 48 h, read-out: GI
[6] = Cytotoxicity against human OVCAR3 cells assessed as cell growth inhibition at 10 uM after 48 hrs by SRB assay relative to control; type: functional; conditions: OVCAR-3, 48 h, read-out: GI
[7] = Cytotoxicity against human OVCAR5 cells assessed as cell growth inhibition at 10 uM after 48 hrs by SRB assay relative to control; type: functional; conditions: OVCAR-5, 48 h, read-out: GI
[8] = Cytotoxicity against human OVCAR8 cells assessed as cell growth inhibition at 10 uM after 48 hrs by SRB assay relative to control; type: functional; conditions: OVCAR-8, 48 h, read-out: GI
786-0 = test: Cytotoxicity against human 786-0 cells assessed as cell growth inhibition at 10 uM after 48 hrs by SRB assay relative to control; type: functional; conditions: 786-0, 48 h, read-out: GI
SN12C = test: Cytotoxicity against human SN12C cells assessed as cell growth inhibition at 10 uM after 48 hrs by SRB assay relative to control; type: functional; conditions: read-out: GI
[9] = Cytotoxicity against human UO31 cells assessed as cell growth inhibition at 10 uM after 48 hrs by SRB assay relative to control; type: functional; conditions: UO-31, 48 h, read-out: GI
[10] = Cytotoxicity against human DU145 cells assessed as cell growth inhibition at 10 uM after 48 hrs by SRB assay relative to control; type: functional; conditions: DU-145, 48 h, read-out: GI
MDA-MB-231 = test: Cytotoxicity against human MDA-MB-231 cells assessed as cell growth inhibition at 10 uM after 48 hrs by SRB assay relative to control; type: functional; conditions: MDA-MB-231, 48 h, read-out: GI
[11] = Cytotoxicity against human BT549 cells assessed as cell growth inhibition at 10 uM after 48 hrs by SRB assay relative to control; type: functional; conditions: BT-549, 48 h, read-out: GI
MDA-MB-468 = test: Cytotoxicity against human MDA-MB-468 cells assessed as cell growth inhibition at 10 uM after 48 hrs by SRB assay relative to control; type: functional; conditions: MDA-MB-468, 48 h, read-out: GI

`O=c1nc(N2CCOCC2)oc2c(-c3cccs3)cccc12` gave an IC50 [1] of 4.5 µM, an inhibition of growth at 10 µM (CCRF-CEM) of 2.36% and an inhibition of growth at 10 µM (K562) of 0.8%. It also gave an inhibition of growth at 10 µM (SR) of 18%, an inhibition of growth at 10 µM (A549) of 5.77% and an inhibition of growth at 10 µM (NCI-H226) of 22%. The inhibition of growth at 10 µM (NCI-H460) was -5.8%, the inhibition of growth at 10 µM [2] was 2.65% and the inhibition of growth at 10 µM [3] was 0.33%. The inhibition of growth at 10 µM (KM12) was 1.99%, the inhibition of growth at 10 µM [4] was 5.21% and the inhibition of growth at 10 µM (M14) was 0.86%. The inhibition of growth at 10 µM (SK-MEL-5) was 13.3%, the inhibition of growth at 10 µM [5] was 20.9% and the inhibition of growth at 10 µM [6] was 2.61%. It also gave an inhibition of growth at 10 µM [7] of 4.55%, an inhibition of growth at 10 µM [8] of 5% and an inhibition of growth at 10 µM (786-0) of 7.7%. It also gave an inhibition of growth at 10 µM (SN12C) of -3.08%, an inhibition of growth at 10 µM [9] of 20.2% and an inhibition of growth at 10 µM [10] of -2.35%. The inhibition of growth at 10 µM (MDA-MB-231) was -6.21%, the inhibition of growth at 10 µM [11] was 14.5% and the inhibition of growth at 10 µM (MDA-MB-468) was 20.3%.
In the case of `O=c1nc(N2CCOCC2)oc2c(-c3cccc4c3sc3ccccc34)cccc12`, the IC50 [1] is reported as 8.5 µM, the inhibition of growth at 10 µM (CCRF-CEM) is reported as 19.9% and the inhibition of growth at 10 µM (K562) is reported as 20.6%. It also gave an inhibition of growth at 10 µM (SR) of 50.9%, an inhibition of growth at 10 µM (A549) of 22.5% and an inhibition of growth at 10 µM (NCI-H226) of 38.6%. For the same molecule, the inhibition of growth at 10 µM (NCI-H460) was 4.79%, the inhibition of growth at 10 µM [2] was 18.7% and the inhibition of growth at 10 µM [3] was 13.4%. It also gave an inhibition of growth at 10 µM (KM12) of 21.6%, an inhibition of growth at 10 µM [4] of 15.2% and an inhibition of growth at 10 µM (M14) of 3.09%. It also gave an inhibition of growth at 10 µM (SK-MEL-5) of 17.2%, an inhibition of growth at 10 µM [5] of 45.6% and an inhibition of growth at 10 µM [6] of 13.7%. It also gave an inhibition of growth at 10 µM [7] of 18.8%, an inhibition of growth at 10 µM [8] of 20.2% and an inhibition of growth at 10 µM (786-0) of 27.7%. The inhibition of growth at 10 µM (SN12C) was 18%, the inhibition of growth at 10 µM [9] was 52% and the inhibition of growth at 10 µM [10] was 5.8%. For the same molecule, the inhibition of growth at 10 µM (MDA-MB-231) was 29.5%, the inhibition of growth at 10 µM [11] was 13.6% and the inhibition of growth at 10 µM (MDA-MB-468) was 26.2%.
`O=c1nc(N2CCOCC2)oc2ccc(-c3cccc4c3sc3ccccc34)cc12` showed an inhibition of growth at 10 µM (CCRF-CEM) of 4.4%, an inhibition of growth at 10 µM (K562) of 10.7% and an inhibition of growth at 10 µM (SR) of 19.5%. For the same molecule, the inhibition of growth at 10 µM (A549) was 5.3%, the inhibition of growth at 10 µM (NCI-H226) was 11.7% and the inhibition of growth at 10 µM (NCI-H460) was -1.46%. For the same molecule, the inhibition of growth at 10 µM [2] was 8.17%, the inhibition of growth at 10 µM [3] was 29.8% and the inhibition of growth at 10 µM (KM12) was 0.12%. For the same molecule, the inhibition of growth at 10 µM [4] was -3.32%, the inhibition of growth at 10 µM (M14) was 2.99% and the inhibition of growth at 10 µM (SK-MEL-5) was 9.84%. It also gave an inhibition of growth at 10 µM [5] of 12.6%, an inhibition of growth at 10 µM [6] of -11.1% and an inhibition of growth at 10 µM [7] of 0.51%. It also gave an inhibition of growth at 10 µM [8] of 0.97%, an inhibition of growth at 10 µM (786-0) of 5.42% and an inhibition of growth at 10 µM (SN12C) of 6.33%. It also gave an inhibition of growth at 10 µM [9] of 1.02%, an inhibition of growth at 10 µM [10] of -3.21% and an inhibition of growth at 10 µM (MDA-MB-231) of 12.8%. For the same molecule, the inhibition of growth at 10 µM [11] was 4.62% and the inhibition of growth at 10 µM (MDA-MB-468) was 20%.
